# According to ChEMBL document CHEMBL1126250, “Alpha-halo [(phenylphosphinyl)methyl]phosphonates as specific inhibitors of Na(+)-gradient-dependent Na(+)-phosphate cotransport across renal brush border membrane” (1992):
# Species on record: Rattus norvegicus
# Assay: In vitro inhibition of Na(+)-gradient-dependent uptake of 32 inorganic phosphate (Pi) by BBM vesicles freshly prepared from the rat renal cortex
# Assay type: functional
# Design: concentration or dose not given beside the values
row,Structure (SMILES),Inhibition [%]
1,O=P(O)(O)C(Cl)(Br)P(=O)(O)c1ccccc1 (configuration not stated),-31
2,O=P(O)(O)C(Cl)(Cl)P(=O)(O)c1ccccc1,-39
3,O=P(O)(O)C(F)P(=O)(O)c1ccccc1 (configuration not stated),-49
4,O=P(O)(O)C(F)(F)P(=O)(O)c1ccccc1,-39
5,O=P(O)(O)C(Cl)P(=O)(O)c1ccccc1 (configuration not stated),-30
6,O=P(O)(O)C(Br)(Br)P(=O)(O)c1ccccc1,-22
7,O=C(O)P(=O)(O)O [FOSCARNET],-63
